Results as given in paper PMC10847070, “State-independent inhibition of the oncogenic Kv10.1 channel by desethylamiodarone, a comparison with amiodarone” (Pflugers Archiv, 2023).

Molecular target: T1, Kv10.1 (Eag1) (Homo sapiens, UniProt O95259)
T1 construct: gene KCNH1
T1 sequence (O95259 1-989): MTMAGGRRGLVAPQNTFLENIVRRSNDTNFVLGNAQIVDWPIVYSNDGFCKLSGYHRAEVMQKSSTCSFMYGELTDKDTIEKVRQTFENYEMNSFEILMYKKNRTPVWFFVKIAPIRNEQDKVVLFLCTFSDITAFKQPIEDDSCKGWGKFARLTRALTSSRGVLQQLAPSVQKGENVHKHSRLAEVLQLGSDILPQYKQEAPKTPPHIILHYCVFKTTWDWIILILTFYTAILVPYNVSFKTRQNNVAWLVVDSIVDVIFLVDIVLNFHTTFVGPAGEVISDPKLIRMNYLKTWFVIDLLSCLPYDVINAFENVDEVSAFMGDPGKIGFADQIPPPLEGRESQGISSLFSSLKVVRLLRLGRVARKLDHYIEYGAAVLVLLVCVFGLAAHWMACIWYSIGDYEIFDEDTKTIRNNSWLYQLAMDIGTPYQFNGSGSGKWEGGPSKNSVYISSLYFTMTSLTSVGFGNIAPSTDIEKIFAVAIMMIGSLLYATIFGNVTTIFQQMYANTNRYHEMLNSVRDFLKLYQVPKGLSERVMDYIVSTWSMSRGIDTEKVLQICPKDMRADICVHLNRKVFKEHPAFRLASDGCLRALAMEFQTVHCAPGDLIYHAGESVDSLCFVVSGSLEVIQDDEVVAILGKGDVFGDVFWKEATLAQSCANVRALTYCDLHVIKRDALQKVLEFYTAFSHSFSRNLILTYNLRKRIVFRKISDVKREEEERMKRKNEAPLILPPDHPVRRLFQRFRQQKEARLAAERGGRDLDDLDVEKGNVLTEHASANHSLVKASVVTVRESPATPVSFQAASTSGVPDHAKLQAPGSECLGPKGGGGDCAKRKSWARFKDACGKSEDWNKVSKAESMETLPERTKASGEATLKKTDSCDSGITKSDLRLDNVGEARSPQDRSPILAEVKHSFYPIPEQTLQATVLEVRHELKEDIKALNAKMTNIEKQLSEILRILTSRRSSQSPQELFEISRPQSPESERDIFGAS
Assay: patch-clamp electrophysiology of HEK293 cells stably expressing Kv10.[…]; dose-response at +[…] mV
Assay type: cell-based

## CCCCc1oc2ccccc2c1C(=O)c1cc(I)c(OCCNCC)c(I)c1 [desAd, desethylamiodarone]
  Kd: 1.2 µM
